Results on one molecule are retold here after the NIST ThermoML archive (doi:10.1021/je049712l).

Numbers after ± are expanded uncertainties.

For this data set the following is noted: 101.33 kPa, Liquid, Vibrating tube method.

As a reminder, the mass density is the mass of a sample divided by its volume.

As to `CO` [methanol], the mass density runs as follows: (273 K) 800 ± 24 kg/m3; (298 K) 787 ± 24 kg/m3; (303 K) 786 ± 24 kg/m3; (313 K) 779 ± 24 kg/m3; (323 K) 768 ± 24 kg/m3.
